Results published in ChEMBL document CHEMBL3576853, “Discovery of InhA inhibitors with anti-mycobacterial activity through a matched molecular pair approach” (Eur J Med Chem, 2015).

Key:
[1] = test system: Mycobacterium tuberculosis; test: Inhibition of Mycobacterium tuberculosis recombinant InhA assessed as enzyme activity measured as NADH oxidation using 2-trans-decenyl CoA as substrate at 50 uM by TECAN spectrophotometer analysis; parameters: scale not given: the % may be the effect or the level left
[2] = test system: Mycolicibacterium smegmatis; test: Anti-mycobacterial activity against Mycobacterium smegmatis assessed as bacterial growth inhibition after 24 hrs by microplate reader analysis; format: functional, organism-based
Escherichia coli [3] = test: Toxicity against Escherichia coli BL21 assessed as bacterial growth inhibition at 50 uM after 8 hrs by microplate reader analysis
Escherichia coli [4] = test: Toxicity against Escherichia coli JM109 assessed as bacterial growth inhibition at 50 uM after 8 hrs by microplate reader analysis; format: organism-based; conditions: in vivo
MDCK = test: Cytotoxicity against dog MDCK cells at 50 uM after 1 day by WST-8 assay; format: cell-based, Canis lupus familiaris; conditions: 24 h
SH-SY5Y = test: Cytotoxicity against human SH-SY5Y cells at 50 uM after 2 days by WST-8 assay; format: cell-based; conditions: 48 h

Compound	Activity [1]	IC50 [2]	Activity (Escherichia coli [3])	Activity (Escherichia coli [4])	Activity (MDCK)	Activity (SH-SY5Y)
COc1cccc(C(=O)N2CCN(Cc3cccc(Oc4ccccc4)c3)CC2)c1OC	65.1%	28.1 µM	Non-toxic	Non-toxic	Non-toxic	–
O=C(Cc1ccccc1)N1CCN(Cc2cccc(Oc3ccccc3)c2)CC1	65.6%	–	Non-toxic	Non-toxic	Non-toxic	–
O=C(c1ccco1)N1CCN(Cc2cccc(Oc3ccccc3)c2)CC1	65.1%	12 µM	–	–	–	–
Oc1cc(Cl)ccc1Oc1ccc(Cl)cc1Cl	16.3%	–	–	–	–	–
O=C(c1cccc(Oc2ccccc2)c1)N1CCN(C(=O)c2ccco2)CC1	69.3%	–	Non-toxic	Non-toxic	Non-toxic	–
O=C(COc1ccccc1)N1CCN(Cc2cccc(Oc3ccccc3)c2)CC1	69.3%	21.4 µM	Non-toxic	Non-toxic	Non-toxic	–
NNC(=O)c1ccncc1 [ISONIAZID]	–	9.8 µM	–	–	–	–
O=C(O)C(=O)O.O=C(c1cccnc1)N1CCN(Cc2cccc(Oc3ccccc3)c2)CC1	34%	–	Non-toxic	Non-toxic	Non-toxic	–
O=C(c1ccccc1)N1CCN(Cc2cccc(Oc3ccccc3)c2)CC1	21.9%	22.9 µM	Non-toxic	Non-toxic	Non-toxic	–
COc1ccc(OCC(=O)N2CCN(Cc3cccc(Oc4ccccc4)c3)CC2)cc1	44.7%	–	Non-toxic	Non-toxic	Non-toxic	Toxic
O=C(O)C(=O)O.O=C(c1ccccc1F)N1CCN(Cc2cccc(Oc3ccccc3)c2)CC1	21.9%	17.3 µM	Non-toxic	Non-toxic	Non-toxic	–
COc1ccccc1C(=O)N1CCN(Cc2cccc(Oc3ccccc3)c2)CC1.O=C(O)C(=O)O	37.7%	25.7 µM	Non-toxic	Non-toxic	Non-toxic	–
Sc1nnc(-c2ccco2)n1/N=C/c1cccc(Oc2ccccc2)c1	53.5%	–	Non-toxic	Non-toxic	Non-toxic	–
